Results on 15 compounds are retold here after US20090203750A1, “5-HT2C Receptor Agonists as Anorectic Agents” (priority 2005, published 2009).

The term EC50 denotes the concentration that produces a half-maximal response. A word on the Emax: it is the maximal effect, on the per cent scale that the assay sets.

In data set [1] the target is T1, human 5-HT2C receptor (Homo sapiens, UniProt P28335).
T1 construct: expressed in transfected cells; host or cells: HEK-293
T1 sequence (P28335 33-458): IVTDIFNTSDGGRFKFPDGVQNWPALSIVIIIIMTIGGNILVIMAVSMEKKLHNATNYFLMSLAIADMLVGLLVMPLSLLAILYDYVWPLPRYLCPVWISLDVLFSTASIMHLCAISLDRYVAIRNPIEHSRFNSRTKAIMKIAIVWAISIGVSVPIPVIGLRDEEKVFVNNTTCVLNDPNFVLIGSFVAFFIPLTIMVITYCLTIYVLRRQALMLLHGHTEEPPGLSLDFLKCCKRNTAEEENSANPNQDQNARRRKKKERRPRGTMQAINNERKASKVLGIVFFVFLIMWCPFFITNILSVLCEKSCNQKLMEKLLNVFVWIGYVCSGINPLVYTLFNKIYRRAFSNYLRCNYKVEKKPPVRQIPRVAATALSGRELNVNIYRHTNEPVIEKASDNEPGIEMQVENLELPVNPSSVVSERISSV
As to the kind of experiment: Functional activity by Ca++-flux (intracellular calcium mobilization), 5-HT2C. The data set is classed as cell-based. To be noted: for EC50: Ca++-flux, HEK-293 cells, NA = not active, read-out: 5-HT2C human EC50; for 2A/2C ratio: ratio of EC50 5-HT2A / 5-HT2C; for 2B/2C ratio: ratio of EC50 5-HT2B / 5-HT2C; for Emax at the 5-HT2C receptor: partial agonist activity. Here is the method: The functional activity of compounds for the human 5-HT2A, human 5-HT2B, and human 5-HT2C receptors as agonists, partial agonists and antagonists is determined by measurement of Ca++-flux. […] As noted above, other methods for assessing agonist/antagonist function of compounds for 5-HT2 family receptors are known in the art.
(§1) For these studies stably expressing lines of h5-HT2A, h5-HT2B, and h5-HT2C receptors are prepared in HEK-293 cells. For the h5-HT2A and h5-HT2C-INI receptors, stably expressing HEK-293 cell lines were constructed as previously described using a pIRES-NEO vector system (See: Rauser et al, J Pharmacol Exp Ther 299: 83-89, 2001).
(§2) Stable cell lines were plated with ˜40,000 cells/well into uncoated (3T3 cells) or poly-L-lysine coated (HEK293 cells) 96-well plates in DMEM supplemented with 5% dialyzed FBS. 16-24 hrs post-plating, the medium was aspirated and replaced with 30 μl/well of Calcium Assay Kit Component A Dye (Molecular Devices; Sunnyvale, Calif.) dissolved in 30 ml/bottle of assay buffer (2.5 mM probenecid, 20 mM Hepes, and 1× Hanks' Balanced Salt Solution (Invitrogen; Carlsbad, Calif.) (138 mM NaCl, 5.3 mM KCl, 1.3 mM CaCl2, 0.49 mM MgCl2, 0.41 mM MgSO4, 0.44 mM KH2PO4, 0.34 mM Na2HPO4) pH 7.4. Plates were incubated in the dye for 1 hr at 37° C. Dilutions were made in assay buffer as 2× stocks and added to 96-well drug plates. Fluorometric imaging was performed using a FlexStation II plate reader (Molecular Devices) reading the plate at 1.5 second intervals for 1 min. After establishing a fluorescent baseline (excitation at 485 nm and emission at 525 nm, using a […] cutoff), the FlexStation II automatically transferred 30 μl of 2× drug stocks from the drug plate to the cell plate at the 20 second time point with reading for another 40 seconds. Peak relative fluorescence units (RFU) were subtracted from baseline RFUs using SoftMax Pro (Molecular Devices) and values were imported into GraphPad Prism version 4.03 (GraphPad Software; San Diego, Calif.) for analysis. Ca++-flux studies are very convenient for initial screening of large numbers of compounds for agonist activity.
(§3) Compounds are resuspended in DMSO at a stock concentration of 2-15 mM and, for a typical agonist screen, are diluted in assay buffer to a final 2× concentration of 20 μM into drugs plates. Compounds are added in duplicate to cell plates using the FlexStation II as described to identify agonists, defined as having >10% of maximal 5-HT response. […] Generally, screens are performed twice with each determination being made in duplicate.
(§4) Compounds identified by primary screens to be agonists are subsequently used in concentration-response experiments to verify the initial observations and obtain agonist potencies. Concentration-response studies are performed in triplicate or quadruplicate at each concentration and repeated three times. Baseline-subtracted RFU values imported into GraphPad Prism are analyzed by non-linear regression to obtain pEC50 values, and normalized to maximal 5-HT response to obtain relative efficacies.
In general terms: Calcium assays in cells follow changes in intracellular calcium, usually with a dye or a luminescent sensor.

Data set [2] concerns the target T2, human 5-HT2A receptor (Homo sapiens, UniProt P28223).
T2 construct: expressed in transfected cells; host or cells: HEK-293
As to the kind of experiment: Functional activity by Ca++-flux (intracellular calcium mobilization), 5-HT2A. Type of data set: cell-based. The settings on record: Ca++-flux, HEK-293 cells, NA = not active. The procedure:
The functional activity of the compounds for the human 5-HT2A, human 5-HT2B, and human 5-HT2C receptors is determined by measurement of Ca++-flux as detailed in the Examples, in transiently transfected HEK-293 cells and the results are summarized in Table I. Structures of compounds listed in Table I are given in Scheme 15.
The functional activity of compounds for the human 5-HT2A, human 5-HT2B, and human 5-HT2C receptors as agonists, partial agonists and antagonists is determined by measurement of Ca++-flux. The results are summarized in Table 1 where EC50 for different receptors are given (nM) and the ratio of activities 2A/2C and 2B/2C are also given. As noted above, other methods for assessing agonist/antagonist function of compounds for 5-HT2 family receptors are known in the art.
as §1, §2
as §3, with “duplicate. Typical Z′-factor (Zhang et al., 1999) values for agonist screens ranged from 0.61-0.79 (5-HT2AR), 0.42-0.81 (5-HT2BR) and 0.38-0.72 (5-HT2CR); these Z′-factor values are adequate for screening studies in which N=2 determinations are made and the screens replicated for a total of N=4 determinations.” for “duplicate.”
as §4

Data set [3] addresses T3, human 5-HT2B receptor (Homo sapiens, UniProt P41595).
T3 construct: expressed in transfected cells; host or cells: HEK293 (ATCC CRL-1573), retroviral infection with pBabepuro-FLAG-h5-HT2BR, polyclonal line
As to the kind of experiment: Functional activity by Ca++-flux (intracellular calcium mobilization), 5-HT2B. The data set is classed as cell-based.

The test system of data set [4] is 6 Hz seizure model. As to the kind of experiment: 6 Hz seizure model in mice. Type of data set: in vivo. To be noted: 100 mg/kg i.p.
Data set [5] relates to MOA. To be noted: in vivo in rats, tryptamine potentiation test; Kaiser / Zirkel 1962; cited from earlier work.
[6] abbreviates: Ca++-flux, HEK-293 cells, NA = not active, read-out: 5-HT2B human EC50.
Where [7] appears, read: Ca++-flux, HEK-293 cells, NA = not active, Hydrochloride, read-out: 5-HT2B human EC50.

Like-named read-outs stand apart in the source and are kept apart here.

T2 sequence (P28223 whole entry): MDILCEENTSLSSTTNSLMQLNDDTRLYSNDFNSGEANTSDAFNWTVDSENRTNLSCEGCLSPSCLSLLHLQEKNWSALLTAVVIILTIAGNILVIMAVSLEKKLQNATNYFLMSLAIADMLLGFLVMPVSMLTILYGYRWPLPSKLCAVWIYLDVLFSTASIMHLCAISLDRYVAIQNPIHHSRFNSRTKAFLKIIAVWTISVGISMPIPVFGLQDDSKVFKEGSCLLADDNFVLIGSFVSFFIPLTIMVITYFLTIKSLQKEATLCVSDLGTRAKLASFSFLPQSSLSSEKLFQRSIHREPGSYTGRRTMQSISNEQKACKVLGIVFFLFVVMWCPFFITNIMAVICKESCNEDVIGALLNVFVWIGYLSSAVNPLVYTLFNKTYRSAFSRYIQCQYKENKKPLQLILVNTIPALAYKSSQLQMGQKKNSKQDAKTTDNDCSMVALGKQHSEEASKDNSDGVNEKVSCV
T3 sequence (P41595 whole entry): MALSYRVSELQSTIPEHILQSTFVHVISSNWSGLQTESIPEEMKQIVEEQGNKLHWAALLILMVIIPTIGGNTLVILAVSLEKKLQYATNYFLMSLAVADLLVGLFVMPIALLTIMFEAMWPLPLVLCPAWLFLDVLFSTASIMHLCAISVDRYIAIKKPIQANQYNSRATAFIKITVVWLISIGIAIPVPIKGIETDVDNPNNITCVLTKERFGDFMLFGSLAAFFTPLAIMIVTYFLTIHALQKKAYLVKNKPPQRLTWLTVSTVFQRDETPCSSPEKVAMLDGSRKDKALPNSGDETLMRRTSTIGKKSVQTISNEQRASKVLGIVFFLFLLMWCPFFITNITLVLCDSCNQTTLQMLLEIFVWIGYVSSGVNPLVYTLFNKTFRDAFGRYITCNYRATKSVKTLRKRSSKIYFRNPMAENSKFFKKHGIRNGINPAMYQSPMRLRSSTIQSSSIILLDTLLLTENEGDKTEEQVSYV

On to `c1ccc(CN[C@@H]2C[C@H]2c2ccccc2)cc1` (racemic) [TKU-II-30, trans-(±)-Benzyl-(2-phenyl-cyclopropyl)-amine], for which, in data set [1], the concentration for a half-maximal effect (EC50) worked out at 10.5 µM, the 2A/2C ratio is listed as 929.5 and the 2B/2C ratio stood at 1020. Moreover, in data set [2], the EC50 stood at 9790 µM. In addition, in data set [3], the concentration for a half-maximal effect (EC50) was determined as 10700 µM.

With “trans-(±)-[2-(4′-Chloro-biphenyl-4-yl)-cyclopropyl]-methylamine Hydrochloride [TKU-II-82]”, the “selectivity over the 5-HT2A receptor” value in data set [1] (5-HT2C versus 5-HT2A) was “good selectivity”. For the same compound, in data set [1], the 50% effective concentration (EC50) was 0.429 µM, the 2A/2C ratio is 464 and the 2B/2C ratio turned out to be 8.3. In data set [2], the EC50 came out at 199 µM. In addition, the half-maximal effective concentration (EC50) in data set [3] (setting [6]) stood at 3.54 µM.

Take “trans-(±)-[2-(4-Bromo-phenyl)-cyclopropyl]-methylamine Hydrochloride [TKU-II-44]”: in data set [1], the EC50 is 0.18 µM, the 2A/2C ratio is on record as 5.90 and the 2B/2C ratio was determined as 2.75. For the same compound, in data set [2], the EC50 was determined as 1.06 µM. Also, the EC50 in data set [3] (setting [6]) is 0.495 µM.

Take “trans-(±)-(2-Naphthalen-2-yl-cyclopropyl)-methylamine hydrochloride [TKU-II-42]”: the figures for the EC50 in data set [1], in data set [2] and in data set [3] (setting [6]) were 6.75 µM, 0.951 µM and 15.4 µM, respectively. Further, in data set [1], the 2A/2C ratio was found to be 0.14. Also, the 2B/2C ratio in data set [1] is on record as 2.29.

Regarding “trans-(±)-(2-Phenyl-cyclopropyl)-methylamine Hydrochloride [TKU-II-17]”, in data set [1] (Hydrochloride), the EC50 stood at 0.0096 µM, the 2A/2C ratio amounted to 5.18 and the 2B/2C ratio amounted to 1.94. Moreover, in data set [2] (Hydrochloride), the EC50 was 0.0497 µM. Further, the EC50 in data set [3] (setting [7]) turned out to be 0.0186 µM. In addition, the motor impairment entry in data set [4] (15-60 minutes after dosing) was “minimal motor impairment”. The “animals protected from seizure” value in data set [4] (after four hours) is “three of the four”.

Regarding “trans-(±)-[2-(4′-Trifluoromethyl-biphenyl-4-yl)-cyclopropyl]-methylamine Hydrochloride [TKU-II-58]”, the figures for the EC50 in data set [1], in data set [2] and in data set [3] (setting [6]) were 0.226 µM, 3.41 µM and 1.27 µM, respectively. In addition, the 2A/2C ratio in data set [1] is listed as 15.1. Moreover, the 2B/2C ratio in data set [1] is 5.62.

As for “trans-aminomethyl-2-phenylcyclopropylamine”, in data set [5], the “inhibition of MOA” value was “not to inhibit MOA”.

For the compound “trans-(±)-[2-(2-Bromo-phenyl)-cyclopropyl]-methylamine Hydrochloride [TKU-II-78]”, in data set [1], the “activity at 5-HT2C receptor” value is “partial agonist activity”, the EC50 was 0.0018 µM, the “Emax at the 5-HT2C receptor” value stood at 58% and the 2A/2C ratio is reported as 16.4. The 2B/2C ratio in data set [1] was 52.2. Further, the EC50 in data set [2] stood at 0.0295 µM. For the same compound, the EC50 in data set [3] (setting [6]) was found to be 0.094 µM.

In the case of “trans-(±)-(2-Phenyl-cyclopropyl)-methylamine Hydrochloride [TKU-II-113]”, in data set [1] (Hydrochloride), the EC50 amounted to 0.0045 µM, the 2A/2C ratio was 9.84 and the 2B/2C ratio was 7.84. In addition, in data set [2] (Hydrochloride), the EC50 turned out to be 0.0443 µM. Moreover, the EC50 in data set [3] (setting [7]) amounted to 0.0353 µM.

Turning to “trans-(±)-[2-(2-Fluoro-phenyl)-cyclopropyl]-methylamine Hydrochloride [TKU-II-100]”, in data set [1], the “activity at 5-HT2C receptor” value is on record as “good potency”, the EC50 was 0.00066 µM, the 2A/2C ratio was determined as 0.94 and the 2B/2C ratio was 0.3. In addition, in data set [2], the concentration giving a half-maximal response (EC50) amounted to 0.00062 µM. The EC50 in data set [3] (setting [6]) worked out at 0.0002 µM.

As for “trans-(±)-[2-(4′-Chloro-biphenyl-2-yl)-cyclopropyl]-methylamine Hydrochloride [TKU-II-119]”, the EC50 in data set [1] is 0.00254 µM; in data set [2], 0.215 µM; in data set [3] (setting [6]), 0.0637 µM. Moreover, in data set [1], the 2A/2C ratio was 85. Further, the 2B/2C ratio in data set [1] is given as 25.

Regarding “trans-(+)-[2-(3-Bromo-phenyl)-cyclopropyl]-methylamine Hydrochloride [TKU-II-153-1]”, the results for the EC50 in data set [1], in data set [2] and in data set [3] (setting [6]) were 0.0114 µM, 0.0487 µM and 0.0213 µM, respectively. In data set [1], the 2A/2C ratio is 4.3. In data set [1], the 2B/2C ratio was determined as 1.8.

As to `c1ccc(CNC[C@@H]2C[C@H]2c2ccccc2)cc1` (racemic) [TKU-II-36, trans-(±)-N-Benzyl-(2-phenyl-cyclopropylmethyl)-amine], in data set [1], the EC50 came out at 7.46 µM, the 2A/2C ratio was determined as 16.5 and the 2B/2C ratio is 137. Further, in data set [2], the EC50 worked out at 123 µM. In addition, the EC50 in data set [3] (setting [6]) was found to be 1020 µM.

As to “trans-(−)-[2-(3-Bromo-phenyl)-cyclopropyl]-methylamine Hydrochloride [TKU-II-153-2]”, the EC50 in data set [1] was determined as 0.307 µM; in data set [2], 2.27 µM; in data set [3] (setting [6]) it was 0.251 µM. Further, in data set [1], the 2A/2C ratio stood at 7.4. Also, the 2B/2C ratio in data set [1] is reported as 0.82.

In the case of “trans-(±)-[2-(3-Bromo-phenyl)-cyclopropyl]-methylamine Hydrochloride [TKU-II-71]”, in data set [1], the “activity at 5-HT2C receptor” value is on record as “partial agonist activity”, the EC50 turned out to be 0.0065 µM, the “Emax at the 5-HT2C receptor” value is recorded as 75% and the 2A/2C ratio was 9.8. Also, the 2B/2C ratio in data set [1] is 2.9. For the same compound, the EC50 in data set [2] is 0.0635 µM. In addition, in data set [3] (setting [6]), the EC50 is 0.0192 µM.
